ChEMBL document CHEMBL1141443, “Antifibrotic phenanthrenes of Dendrobium nobile stems” (J Nat Prod, 2007)
Values joined by “and” are separate entries in the source; they are usually repeats but may differ in a detail not shown here. Equal entries are not always repeated.

Key:
[1] = Antiproliferative activity against rat HSC-T6 cells after 48 hrs by MTT assay; format: functional, cell-based
Hepatocyte = experiment: Cytotoxicity against rat hepatocytes at 10 to 100 uM; format: cell-based
[2] = Rattus norvegicus, HSC-T6, 48 h

Structure (SMILES)	IC50 [1, 2] [µM]	Activity (Hepatocyte)	IC50 ([1]; hsc-t6)
COc1cc2ccc3cccc(O)c3c2c(OC)c1O [BULBOPHYLLANTHRIN]	50.9	Non-toxic	
COc1ccc2c(c1)CCc1c(-c3c(O)c(OC)c(OC)c4c3CCc3cc(OC)ccc3-4)c(O)c(OC)c(OC)c1-2	88.2	Non-toxic	
COc1cc2c(c(O)c1OC)-c1ccc(O)cc1CC2 [EPHEMERANTHOL A]	79.2	Non-toxic	
COC1=CC(=O)c2ccc3cc(OC)cc(O)c3c2C1=O [DENBINOBIN]	15.2	Non-toxic	
COc1c(O)cc2ccc3cccc(O)c3c2c1OC	> 100	Non-toxic	
COc1cc2cc(O)c(O)c(OC)c2c2c(O)cccc12	9	Non-toxic	
COc1ccc2c(c1O)CCc1cc(O)c(OC)c(OC)c1-2	35.7	Non-toxic	
O=C(O[C@@H]1Cc2c(O)cc(O)cc2O[C@@H]1c1cc(O)c(O)c(O)c1)c1cc(O)c(O)c(O)c1 [EPIGALOCATECHIN GALLATE]	9.9		
COc1ccc2c(c1)CCc1cc(OC)c(O)c(OC)c1-2	> 100	Non-toxic	
COc1ccc2c(ccc3cc(O)c(OC)c(OC)c32)c1O	54.1	Non-toxic	
COc1c(O)cc2c(c1OC)-c1ccc(O)cc1CC2 [ERIANTHRIDIN]	73.2	Non-toxic	
COc1ccc2c(ccc3cc(OC)c(O)c(OC)c32)c1	> 100	Non-toxic	
COc1cc(O)c2c(c1)CCc1cccc(O)c1-2	> 100	Non-toxic	
COc1cc(O)c2c(c1)CCc1cc(O)ccc1-2 [LUSIANTHRIDIN]	61.2	Non-toxic	
COc1ccc2c(c1)CCc1cc(O)cc(OC)c1-2 [COELONIN]		Non-toxic	13.4 µM and 69.1 µM
COc1c(O)c(O)cc2ccc3cccc(O)c3c12 [FIMBRIOL B]	11	Non-toxic	
COc1c(O)cc2ccc3cc(O)ccc3c2c1OC [NUDOL]	> 100	Non-toxic	
COc1c(OC)c2cc(O)cc(OC)c2c2c(O)cccc12 [PLICATOL A]	> 100	Non-toxic	
COc1ccc2c(c1)CCc1cc(O)c(OC)c(OC)c1-2	> 100	Non-toxic	
